The source of these data is article PMC6264278, “Corydaline Inhibits Multiple Cytochrome P450 and UDP-Glucuronosyltransferase Enzyme Activities in Human Liver Microsomes” (Molecules, 2011).

This test addresses T1, UGT1A9 (Homo sapiens, UniProt O60656).
T1 construct: using pooled human liver microsomes; tissue BD Gentest Co. H161; host or cells: pooled human liver microsomes
T1 sequence (O60656 26-530): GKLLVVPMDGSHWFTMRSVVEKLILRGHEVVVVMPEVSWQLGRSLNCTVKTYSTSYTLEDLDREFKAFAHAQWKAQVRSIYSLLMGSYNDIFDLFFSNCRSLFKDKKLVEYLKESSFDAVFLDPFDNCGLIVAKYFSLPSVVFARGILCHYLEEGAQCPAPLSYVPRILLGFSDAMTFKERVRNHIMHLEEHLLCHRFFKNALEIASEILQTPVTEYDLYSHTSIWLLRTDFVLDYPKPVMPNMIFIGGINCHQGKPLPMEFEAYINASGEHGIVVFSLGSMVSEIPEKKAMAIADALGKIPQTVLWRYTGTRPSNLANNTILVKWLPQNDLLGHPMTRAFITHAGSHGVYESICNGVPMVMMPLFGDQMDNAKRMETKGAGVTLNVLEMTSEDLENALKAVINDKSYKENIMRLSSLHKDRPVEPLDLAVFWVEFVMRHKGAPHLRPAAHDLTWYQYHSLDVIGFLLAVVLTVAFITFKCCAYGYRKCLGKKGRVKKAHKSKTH
As to the kind of experiment: UGT1A9 propofol glucuronidation inhibition in pooled human liver microsomes. The test is classed as in vitro ADME. The method, then:
The inhibitory potencies (IC50 values) of corydaline were also determined with UGT assays in the presence and absence of corydaline (final concentrations of 1–1,000 μM with acetonitrile concentration less than 0.5% v/v) using pooled human liver microsomes. 17β-Estradiol 3-glucuronidation, trifluoperazine glucuronidation, propofol glucuronidation, and azidothymidine glucuronidation activities were determined as probe activities for UGT1A1, UGT1A4, UGT1A9, and UGT2B7, respectively, using LC/MS/MS. Incubation mixtures were prepared in a total volume of 100 μL, as follows: Pooled human liver microsomes (0.2 mg/mL for 17β-estradiol, trifluoperazine and azidothymidine; 0.1 mg/mL for propofol), 2 mM UDPGA, 25 μg/mL alamethicin, 10 mM MgCl2, 50 mM tris buffer (pH 7.4), UGT-isoform specific probe substrate (20 μM 17β-estradiol for UGT1A1, 5 μM trifluoperazine for UGT1A4, 10 μM propofol for UGT1A9, or 100 μM azidothymidine for UGT2B7), and various concentrations of corydaline (1−1000 μM). Reactions were initiated by addition of UDPGA, and incubations were carried out at 37 °C in a shaking water bath for 30 min. […]
Glucuronides produced from UGT isoform-specific substrates were respectively determined by LC/MS/MS. […] Quantification was performed by SRM of the [M+H]^+ ion for trifluoperazine glucuronide and azidothymidine glucuronide or [M−H]^− for 17β-estradiol 3-glucuronide and propofol glucuronide and the related product ion for each metabolite.
Reactions were initiated by addition of NADPH at 37 °C and stopped after 15 min by placement of the incubation tubes on ice and addition of ice-cold methanol (100 μL) containing an internal standard (2.0 μg/mL ^13C6-4-hydroxydiclofenac for diclofenac, 0.5 μg/mL d3-4-hydroxymephenytoin for mephenytoin, or 0.5 μg/mL d9-1-hydroxy-bufuralol for bufuralol). The incubation mixtures were centrifuged at 13,000 × g for 5 min, and aliquots (5 μL) of the supernatants were analyzed by LC/MS/MS. […] Aliquots (5 μL) were analyzed by LC/MS/MS. […]

Under “human liver microsomes, 10-30 μM propofol”, `COc1cc2c(cc1OC)C1C(C)c3ccc(OC)c(OC)c3CN1CC2` (stereo not drawn) [Corydaline, 2,3,9,10-tetramethoxy-13-methyl-5,8,13,13a-tetrahydro-6H-isoquino[3,2-a]isoquinoline] registered an inhibition constant Ki of 37.3 ± 14.4 µM. Further, the “inhibition mode, UGT1A9 propofol glucuronidation” value (mixed competitive-noncompetitive equation, nonlinear regression) is given as “competitive”. The compound further returned an IC50 (pooled human liver microsomes (H161), 10 μM propofol, mean ± SD, n = 3) of 39.4 ± 6 µM.
